Experimental data published in patent US10314816B2, “Antimicrobial compounds, compositions and methods of use thereof” (Wisconsin Alumni Research Foundation, priority 2012, dated 2019).

Tests used:
[1] = tested on: rabbit red blood cells (RBC); test: Rabbit red blood cell (RBC) hemolysis assay; format: cell-based
Method: Rabbit red blood cell (RBC) hemolysis assay. Rabbit RBCs from Lampire Biological Laboratories were used. Prior to preparing the RBCs, compound-containing PBS solutions were serially diluted into a 96-well plate (a final volume of 100 μL/well). The RBC lysis solution (Epicentre Biotechnology) was included as a positive control for hemolysis. For each assay, 1 mL of the RBC suspension was removed from the stock bottle and centrifuged for 2 minutes at 2000 rpm. The pelleted cells were resuspended in sterile PBS solution and centrifuged again. The cells were resuspended in PBS and diluted 5-fold into the same solution. 100 μL aliquots of RBCs were added into wells of a 96-well plate that contained an equal volume of a solution of compound in PBS. The plates were incubated for varying amounts of time depending on the microbial assay conditions to be emulated. For MIC-like conditions, plates were incubated for at least 17 hours at 30° C. or 37° C. For MSC-like conditions, the incubation time was either 2 hours or 6 hours at 30° C. or 37° C. During the incubation, un-lysed RBCs settled at the bottom of the wells. At the end of the incubation, 90 μL of the supernatant was transferred into the wells of a fresh 96-well plate, and the absorbance of the heme at 2=405 nm was measured.
To test the toxicity of DCAP against mammalian membranes, the hemolysis of rabbit red blood cells (RBC) was measured. These experiments were performed using conditions that closely mimicked the MIC and MSC assays. RBCs were treated with CCCP and DCAP at their MICs for the time periods used (17 hours) to determine the MIC of C. crescentus and S. aureus. After incubation, the absorbance of heme released from lysed RBCs was measured.
The MSC assay conditions were also reproduced to measure toxicity against RBCs. First, the minimum time required to obtain the MSC for DCAP treatment of C. crescentus (2 hours) and S. aureus (6 hours; data not shown) was determined.

B. subtilis 168 = test: MIC of bacterial growth, macrodilution (Table 2); format: cell-based; conditions: Bacillus subtilis
Method: Bacterial strains and growth conditions. Luria-Bertani (LB) media (10 g/L tryptone, 10 g/L NaCl, 5 g/L yeast extract, pH 7.2) was used to grow B. subtilis 168, S. aureus FRI100, and P. aeruginosa K1115 strains. For P. aeruginosa PAO1 and K1119 strains and two E. coli BW25113 strains, M8 minimal media (241 mg/L MgSO4, 4 mg/L glucose, 5 mg/L casamino acids, 12.8 g/L Na2HPO4.7H2O, 3 g/L KH2PO4, and 0.5 g/L NaCl) was used. PYE media (2 g/L peptone, 1 g/L yeast extract, 0.8 mM MgSO4, and 0.5 mM CaCl2) was used for culturing C. crescentus cells at 30° C. All cultures were grown at 37° C., except for C. crescentus (30° C.). All cultures were grown while shaking at 200 rpm.
Determination of the minimum inhibitory concentration (MIC) of bacterial growth. The MIC of various organisms in liquid media was determined using the macrodilution method according to the NCCLS guidelines. For the starting inoculum, cultures were diluted to contain approximately 5×10^5 cells/mL in growth media. To create a two-fold dilution series for the macrodilution technique, each compound was added to the first culture tube (4 mL total volume) at the highest concentration. 2 mL of this culture was diluted into an equal volume of inoculated media (a two-fold dilution). The final volume for each culture was 2 mL.

C. crescentus cells = test: Measurement of ΔΨ using DiOC2, fluorescence microscopy; format: cell-based, Caulobacter crescentus; conditions: 20 minutes of treatment, p<0.001
Method: For experiments with C. crescentus cells, the cells were prepared by diluting the overnight culture 10-fold into fresh PYE medium. The diluted culture was grown for 1 hour at 200 rpm and 30° C. The cells were treated with compounds for 10 minutes at room temperature, DiOC2 dye was added to a final concentration of 30 μM, and incubated for 10 minutes. After labeling, small aliquots (1-2 μl) of the suspensions of cells were transferred onto 1% agarose pads for fluorescence microscopy. A Nikon Eclipse TE2000E inverted microscope with an Andor DU-895 EMCCD camera, a Perfect Focus system, and an encoded z-stage were used for phase contrast and epifluorescence microscopy. For detecting green and red fluorescence of the dye, the following wavelengths (λex/λem): 484/520 nm and 555/620 nm, respectively, were used. Acquired images were analyzed using the MATLAB-based script MicrobeTracker. […] The segmentation was applied to the fluorescence images to calculate the fluorescence intensity for individual cells. A separate MATLAB script was written to process the results from MicrobeTracker, in which the cell-area normalized ratio of red to green fluorescence for each cell was calculated.
ΔΨ was measured for two model bacteria, C. crescentus (Gram-negative) and Bacillus subtilis (Gram-positive), in the absence and presence of DCAP. […] DiOC2 emits green fluorescence (λ=530 nm) in its monomeric form. […]

[2] = compounds at their MICs for C. crescentus and S. aureus, 17 hours

Row | SMILES | Hemolysis of rabbit RBCs [1, 2] | Hemolysis of rabbit RBCs ([1]; high concentration, MSC conditions for S. aureus (FIG. 8C)) | MIC (B. subtilis 168) | ΔΨ (λ576/λ530 of DiOC2) (C. crescentus cells) | Hemolysis of rabbit RBCs ([1]; MSC assay conditions, 2 hours (C. crescentus) and 6 hours (S. aureus)) | Hemolysis of rabbit RBCs ([1]; higher concentrations of DCAP (i.e., 50 μM), 17 hours)
1 | N#CC(C#N)=NNc1cccc(Cl)c1 [CCCP, carbonyl cyanide m-chlorophenyl hydrazone] | did not significantly disrupt RBC membranes | toxic to RBCs at a high concentration | 10 µM | significant decrease in λ576/λ530 |  | 
2 | OCC(CO)(CO)NCC(O)Cn1c2ccc(Cl)cc2c2cc(Cl)ccc21 (stereo not drawn) [DCAP, 2-((3-(3,6-dichloro-9H-carbazol-9-yl)-2-hydroxypropyl)amino)-2-(hydroxymethyl)propane-1,3-diol] | did not significantly disrupt RBC membranes |  | 32 µM | significant decrease in λ576/λ530 | no significant toxicity | moderately toxic to RBCs
